Laboratory results: ChEMBL document CHEMBL1140093, “Structure-activity relationships for a novel series of dopamine D2-like receptor ligands based on N-substituted 3-aryl-8-azabicyclo[3.2.1]octan-3-ol” (J Med Chem, 2008)

Legend:
[1] = molecular target: T1, D(2) dopamine receptor (Homo sapiens, UniProt P14416); experiment: Displacement of [125I]IABN from human dopamine D2L receptor expressed in HEK293 cells; type: cell-based
[2] = molecular target: T2, D(3) dopamine receptor (Homo sapiens, UniProt P35462); experiment: Displacement of [125I]IABN from human dopamine D3 receptor expressed in HEK293 cells; type: cell-based
T2 sequence (P35462 whole entry): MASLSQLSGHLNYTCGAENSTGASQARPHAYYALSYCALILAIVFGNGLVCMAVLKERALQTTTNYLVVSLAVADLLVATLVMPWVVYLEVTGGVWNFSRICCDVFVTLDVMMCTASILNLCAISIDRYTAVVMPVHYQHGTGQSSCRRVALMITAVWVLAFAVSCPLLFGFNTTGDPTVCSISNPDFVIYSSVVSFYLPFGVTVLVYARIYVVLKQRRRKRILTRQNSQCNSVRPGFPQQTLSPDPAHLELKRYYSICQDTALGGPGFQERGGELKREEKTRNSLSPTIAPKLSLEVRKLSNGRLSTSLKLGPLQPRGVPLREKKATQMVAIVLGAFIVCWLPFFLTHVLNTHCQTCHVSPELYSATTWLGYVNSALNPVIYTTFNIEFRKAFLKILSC

[3] = molecular target: T3, 5-hydroxytryptamine receptor 1A (Homo sapiens, UniProt P08908); experiment: Displacement of [3H]8OH-DPAT from 5HT1A receptor
T3 sequence (P08908 whole entry): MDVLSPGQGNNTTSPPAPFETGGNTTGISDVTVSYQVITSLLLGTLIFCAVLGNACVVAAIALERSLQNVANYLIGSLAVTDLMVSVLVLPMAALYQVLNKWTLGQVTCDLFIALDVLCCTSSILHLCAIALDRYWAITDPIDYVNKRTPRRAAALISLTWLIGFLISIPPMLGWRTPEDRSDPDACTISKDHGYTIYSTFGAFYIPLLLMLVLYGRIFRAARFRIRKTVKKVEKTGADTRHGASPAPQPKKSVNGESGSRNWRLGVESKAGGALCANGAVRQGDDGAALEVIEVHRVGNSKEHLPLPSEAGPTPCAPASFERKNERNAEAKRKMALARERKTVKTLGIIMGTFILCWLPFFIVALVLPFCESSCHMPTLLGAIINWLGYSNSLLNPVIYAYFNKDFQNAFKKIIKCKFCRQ

[4] = molecular target: 5-hydroxytryptamine receptor 2A (Homo sapiens, UniProt P28223); experiment: Displacement of [3H]ketanserin from 5HT2A receptor
5-hydroxytryptamine receptor 2A, sequence (P28223 whole entry): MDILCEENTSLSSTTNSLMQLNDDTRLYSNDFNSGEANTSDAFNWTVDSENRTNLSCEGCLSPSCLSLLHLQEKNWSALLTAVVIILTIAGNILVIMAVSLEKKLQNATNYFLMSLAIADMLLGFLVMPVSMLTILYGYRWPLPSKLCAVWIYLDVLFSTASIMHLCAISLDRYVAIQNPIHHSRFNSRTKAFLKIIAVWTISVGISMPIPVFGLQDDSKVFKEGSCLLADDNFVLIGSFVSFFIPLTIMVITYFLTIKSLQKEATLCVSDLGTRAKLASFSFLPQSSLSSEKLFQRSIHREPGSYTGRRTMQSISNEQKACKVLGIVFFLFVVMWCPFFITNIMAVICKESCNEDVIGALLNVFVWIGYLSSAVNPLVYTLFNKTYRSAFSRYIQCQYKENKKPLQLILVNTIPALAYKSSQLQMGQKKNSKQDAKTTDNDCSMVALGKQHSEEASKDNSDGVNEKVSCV

[5] = molecular target: T4, 5-hydroxytryptamine receptor 2C (Homo sapiens, UniProt P28335); experiment: Displacement of [3H]mesulergine from 5HT2C receptor
T4 sequence (P28335 whole entry): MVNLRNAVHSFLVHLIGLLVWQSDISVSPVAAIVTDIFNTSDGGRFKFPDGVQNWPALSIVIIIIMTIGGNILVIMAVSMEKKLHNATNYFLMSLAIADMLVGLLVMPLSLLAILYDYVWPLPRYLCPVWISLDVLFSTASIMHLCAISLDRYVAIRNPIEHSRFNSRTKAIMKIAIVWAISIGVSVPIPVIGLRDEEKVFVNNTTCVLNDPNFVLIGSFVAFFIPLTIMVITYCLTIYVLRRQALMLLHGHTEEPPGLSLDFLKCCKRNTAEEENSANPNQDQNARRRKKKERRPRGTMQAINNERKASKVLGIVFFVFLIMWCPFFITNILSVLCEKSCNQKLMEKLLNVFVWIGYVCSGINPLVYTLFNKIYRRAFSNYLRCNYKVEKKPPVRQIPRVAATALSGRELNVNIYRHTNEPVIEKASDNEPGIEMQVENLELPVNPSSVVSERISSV

[6] = molecular target: D(1A) dopamine receptor (Homo sapiens, UniProt P21728); experiment: Displacement of [3H]SCH23390 from dopamine D1 receptor
D(1A) dopamine receptor, sequence (P21728 whole entry): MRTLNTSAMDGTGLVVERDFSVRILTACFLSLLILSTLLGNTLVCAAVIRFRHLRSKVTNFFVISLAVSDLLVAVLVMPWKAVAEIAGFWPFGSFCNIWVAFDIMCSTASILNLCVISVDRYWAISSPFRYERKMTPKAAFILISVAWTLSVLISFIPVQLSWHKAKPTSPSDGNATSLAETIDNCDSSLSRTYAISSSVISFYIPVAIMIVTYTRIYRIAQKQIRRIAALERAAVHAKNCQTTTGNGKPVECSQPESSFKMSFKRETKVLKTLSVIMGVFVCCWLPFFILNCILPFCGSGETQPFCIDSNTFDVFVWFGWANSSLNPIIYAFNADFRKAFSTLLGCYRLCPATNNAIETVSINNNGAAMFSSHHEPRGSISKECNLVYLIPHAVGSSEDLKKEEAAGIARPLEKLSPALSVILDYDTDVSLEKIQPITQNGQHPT

[7] = molecular target: T5, D(4) dopamine receptor (Homo sapiens, UniProt P21917); experiment: Displacement of [125I]IABN from human dopamine D4 receptor
T5 sequence (P21917 whole entry): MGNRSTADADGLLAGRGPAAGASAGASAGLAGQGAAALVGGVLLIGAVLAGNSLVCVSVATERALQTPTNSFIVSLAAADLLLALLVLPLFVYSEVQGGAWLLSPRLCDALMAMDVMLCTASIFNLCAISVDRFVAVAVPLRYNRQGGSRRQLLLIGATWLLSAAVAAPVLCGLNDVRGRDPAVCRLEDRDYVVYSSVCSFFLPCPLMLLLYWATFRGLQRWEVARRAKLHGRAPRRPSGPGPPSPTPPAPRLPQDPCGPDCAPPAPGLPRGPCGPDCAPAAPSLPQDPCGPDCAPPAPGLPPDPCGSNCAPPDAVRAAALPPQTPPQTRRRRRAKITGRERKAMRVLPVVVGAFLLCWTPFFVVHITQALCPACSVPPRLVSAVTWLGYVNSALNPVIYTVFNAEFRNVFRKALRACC

[8] = molecular target: T1, D(2) dopamine receptor; experiment: Antagonist activity at dopamine D2 receptor; type: functional
[9] = molecular target: T2, D(3) dopamine receptor; experiment: Antagonist activity at dopamine D3 receptor; type: functional

T1 sequence (P14416 whole entry): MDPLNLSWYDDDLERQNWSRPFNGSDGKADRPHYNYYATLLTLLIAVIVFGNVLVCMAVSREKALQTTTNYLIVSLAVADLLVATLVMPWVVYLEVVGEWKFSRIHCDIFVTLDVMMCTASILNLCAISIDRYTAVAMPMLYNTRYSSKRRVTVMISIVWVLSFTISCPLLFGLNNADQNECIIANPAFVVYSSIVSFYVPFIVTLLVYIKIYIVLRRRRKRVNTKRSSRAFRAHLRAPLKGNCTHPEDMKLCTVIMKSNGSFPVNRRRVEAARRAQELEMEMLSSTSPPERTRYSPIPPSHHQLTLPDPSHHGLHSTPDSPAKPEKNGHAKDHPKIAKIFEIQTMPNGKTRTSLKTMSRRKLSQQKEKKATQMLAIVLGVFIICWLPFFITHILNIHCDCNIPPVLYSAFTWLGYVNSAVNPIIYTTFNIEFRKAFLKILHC

Row | SMILES | Ki [1] | Ki [2] | also measured
1 | O[C@]1(c2ccc(Cl)cc2)C[C@H]2CC[C@@H](C1)N2Cc1c[nH]c2ccccc12 | 33.4 nM | 15.5 nM | Ki [3]: > 10000 nM; Ki [4]: 4770 nM; Ki [5]: > 10000 nM; Ki [6]: 1220 nM; Ki [7]: > 5000 nM; IC50 [8]: 48.3 nM; IC50 [9]: 12.3 nM
2 | O[C@@]1(c2ccc(Cl)c(Cl)c2)C[C@H]2CC[C@@H](C1)N2Cc1c[nH]c2ccccc12 | – | 6.35 nM | Ki [3]: > 10000 nM; Ki [4]: 2800 nM; IC50 [9]: 10.2 nM
3 | O[C@@]1(c2cccc(Cl)c2Cl)C[C@H]2CC[C@@H](C1)N2Cc1c[nH]c2ccccc12 | 545 nM | 480 nM | –
4 | O[C@@]1(c2ccc(F)cc2)C[C@H]2CC[C@@H](C1)N2Cc1c[nH]c2ccccc12 | – | 31 nM | –
5 | O[C@@]1(c2ccc3ccccc3c2)C[C@H]2CC[C@@H](C1)N2Cc1c[nH]c2ccccc12 | 196 nM | 224 nM | –
6 | COc1ccccc1[C@]1(O)C[C@H]2CC[C@@H](C1)N2Cc1c[nH]c2ccccc12 | 2070 nM | 6410 nM | –
7 | CSc1ccc([C@]2(O)C[C@H]3CC[C@@H](C2)N3Cc2c[nH]c3ccccc23)cc1 | 565 nM | 541 nM | –
8 | O[C@@]1(c2ccc(Cl)cc2)C[C@H]2CC[C@@H](C1)N2Cc1n[nH]c2ccccc12 | 225 nM | 84.7 nM | –
9 | COc1ccc2[nH]cc(CN3[C@@H]4CC[C@H]3C[C@](O)(c3ccc(Cl)cc3)C4)c2c1 | – | 21.2 nM | –
10 | COc1ccc2[nH]cc(CN3[C@@H]4CC[C@H]3C[C@](O)(c3ccc(SC)cc3)C4)c2c1 | 554 nM | 1210 nM | –
11 | O[C@@]1(c2ccc(Cl)cc2)C[C@H]2CC[C@@H](C1)N2Cc1csc2ccccc12 | 12.9 nM | 3.62 nM | Ki [3]: 1720 nM; Ki [5]: > 10000 nM; Ki [6]: 3000 nM; Ki [7]: 140 nM; IC50 [8]: 26.2 nM; IC50 [9]: 4.2 nM
12 | O[C@@]1(c2cccc(Cl)c2Cl)C[C@H]2CC[C@@H](C1)N2Cc1csc2ccccc12 | 280 nM | 431 nM | –
13 | O[C@@]1(c2ccc(Cl)cc2)C[C@H]2CC[C@@H](C1)N2Cc1coc2ccccc12 | – | 0.71 nM | Ki [5]: > 10000 nM; IC50 [9]: 0.85 nM
14 | O[C@]1(c2ccc(Cl)c(Cl)c2)C[C@H]2CC[C@@H](C1)N2Cc1coc2ccccc12 | 1.7 nM | 0.34 nM | –
15 | O[C@@]1(c2cccc(Cl)c2Cl)C[C@H]2CC[C@@H](C1)N2Cc1coc2ccccc12 | – | 32.2 nM | –
16 | O[C@@]1(c2ccc(F)cc2)C[C@H]2CC[C@@H](C1)N2Cc1coc2ccccc12 | 4.9 nM | 1.2 nM | –
17 | O[C@@]1(c2ccc(Br)cc2)C[C@H]2CC[C@@H](C1)N2Cc1coc2ccccc12 | 1.5 nM | 0.92 nM | –
18 | O[C@@]1(c2ccc(Cl)cc2)C[C@H]2CC[C@@H](C1)N2Cc1coc2ccc(F)cc12 | 1.2 nM | 0.37 nM | –
19 | O[C@@]1(c2ccc(Cl)cc2)C[C@H]2CC[C@@H](C1)N2Cc1coc2ccc3ccccc3c12 | 11.7 nM | 8.4 nM | –
20 | O[C@@]1(c2ccc(Cl)cc2)C[C@H]2CC[C@@H](C1)N2Cc1coc2c1ccc1ccccc12 | 5.6 nM | 2 nM | –
21 | O[C@@]1(c2ccc(Cl)c(Cl)c2)C[C@H]2CC[C@@H](C1)N2Cc1coc2ccc(F)cc12 | 1.4 nM | 0.53 nM | –
22 | OC1(c2ccc(Cl)cc2)CCN(Cc2c[nH]c3ccccc23)CC1 | – | – | Ki [7]: 1100 nM; IC50 [9]: 90.4 nM
23 | COc1ccc2occ(CN3[C@@H]4CC[C@H]3C[C@](O)(c3ccc(Cl)cc3)C4)c2c1 (single isomer, unassigned) | 1.5 nM | 2.1 nM | –
